US20260256929A1, “PROTEASE/ENZYME CLEAVABLE LINKER-PAYLOADS AND PROTEIN CONJUGATES” (priority 2022, published 2026)
Where two headings read alike, the source gives them in different places.

Assays:
Format in all cases: cell-based
[1] = system: MDA-MB-361; assay: Free drug cell killing activity (cell proliferation assay, Cell Titer-Glo); conditions: for EC50: Homo sapiens
Description: (§1) The in vitro cell killing activity of exatecan, gly-exatecan, and hemiasterlin were evaluated in a panel of breast cancer and lung cancer cell lines.
(§2) MDA-MB-361, SKBR3, BT20, HCC38, HCC1143, HCC1937, JIMT1, MCF-7, A549, NCI-H441, NCI-H520, NCI-H1703, NCI-H1975, NCI-H2110, NCI-H226, NCI-H292, NCI-H358 cells were purchased from ATCC (American Type Culture Collection, Manassas, VA, USA). All the cell lines were maintained in DMEM/F12 (1:1), high glucose (Corning, Corning, NY) supplemented with 10% heat-inactivated fetal bovine serum (Thermo Scientific, Grand Island, NY), 2 mM glutamax (Thermo Scientific, Grand Island, NY), and 1× Penicillin/Streptomycin (Corning, Corning, NY). Cytotoxicity effect of the Exatecan warhead was measured with a cell proliferation assay. Cells were seeded in a 384-well flat bottom white polystyrene plate at 625 cells/25 uL the day before the actual assay starts. Exatecan was formulated at 2× starting concentration in cell culture medium, serial diluted (1:3) under sterile conditions and added onto cells in triplicates. Plates were cultured at 37° C. in a CO2 incubator for 120 hours. For cell viability measurement, 30 microliter of Cell Titer-Glo® reagent (Promega Corp, Madison, WI) was added into each well, and plates processed as per product instructions. Relative luminescence was measured on an ENVISION® plate reader (Perkin-Elmer; Waltham, MA). Relative luminescence readings were converted to % viability using untreated cells as controls. Data was fitted with non-linear regression analysis, using log (inhibitor) vs. response, variable slope, 4-parameter fit equation using GraphPad Prism.

[2] = system: JIMT1; assay: as above; conditions: for EC50: Homo sapiens
Description: as §1, §2

[3] = system: A549; assay: as above; conditions: for EC50: Homo sapiens
Description: as §1, §2

[4] = system: NCI-H226; assay: as above; conditions: for EC50: Homo sapiens
Description: as §1, §2

[5] = system: NCI-H520; assay: as above; conditions: NCI-H520, 120 hours; for EC50: Homo sapiens
Description: as §1, §2

[6] = system: HCC38; assay: as above; conditions: for EC50: Homo sapiens
Description: as §1, §2

[7] = system: BT20; assay: as above; conditions: for EC50: Homo sapiens
Description: as §1, §2

[8] = system: NCI-H2110; assay: as above
Description: as §1, §2

[9] = system: NCI-H1975; assay: as above; conditions: for EC50: Homo sapiens
Description: as §1, §2

[10] = system: MCF-7; assay: as above; conditions: for EC50: Homo sapiens
Description: as §1, §2

[11] = system: NCI-H292; assay: as above; conditions: for EC50: Homo sapiens
Description: as §1, §2

[12] = system: HCC1937; assay: as above; conditions: for EC50: Homo sapiens
Description: as §1, §2

[13] = system: SKBR3; assay: as above; conditions: for EC50: Homo sapiens
Description: as §1, §2

[14] = system: NCI-H358; assay: as above; conditions: for EC50: Homo sapiens
Description: as §1, §2

[15] = system: NCI-H441; assay: as above; conditions: for EC50: Homo sapiens
Description: as §1, §2

[16] = system: NCI-H1703; assay: as above; conditions: for EC50: Homo sapiens
Description: as §1, §2

[17] = system: HCC1143; assay: as above; conditions: for EC50: Homo sapiens
Description: as §1, §2

[18] = system: MDA-MB-231; assay: as above; conditions: for EC50: Homo sapiens
[19] = system: panel of breast cancer and lung cancer cell lines; assay: Free drug cell killing activity across the whole panel; conditions: all the cell lines tested (Table 2), 120 hours; read-out: EC50 values ranging over all the cell lines tested
Description: as §1
as §2, with “For cell viability measurement, 30 microliter of Cell Titer-Glo® reagent (Promega Corp, Madison, WI) was added into each well, and plates processed as per product instructions.” left out, “Data was fitted with non-linear regression analysis, using log (inhibitor) vs. response, variable slope, 4-parameter fit equation using GraphPad Prism.” left out

[20] = system: MDA-MB-468; assay: Free drug cell killing activity (cell proliferation assay, Cell Titer-Glo); conditions: for EC50: Homo sapiens
[21] = system: NCI-H2343; assay: as above

SMILES: CC[C@@]1(O)C(=O)OCc2c1cc1n(c2=O)Cc2c-1nc1cc(F)c(C)c3c1c2[C@@H](N)CC3 [Exatecan, exatecan]
- EC50 ([1]; MDA-MB-361, 120 h): 1.2 nM
- Span (%) ([1]; MDA-MB-361, 120 hours): 96%
- EC50 ([2]; JIMT-1, 120 h): 1.6 nM
- Span (%) ([2]; JIMT1, 120 hours): 98%
- Span (%) ([3]; A549, 120 hours): 96%
- EC50 ([3]; A549, 120 h): 1.2 nM
- EC50 ([4]; NCI-H226, 120 h): 1.08 nM
- Span (%) ([4]; NCI-H226, 120 hours): 98%
- EC50 [5]: 0.6 nM
- Span (%) [5]: 96%
- Span (%) ([6]; HCC38, 120 hours): 96%
- EC50 ([6]; HCC38, 120 h): 0.38 nM
- Span (%) ([7]; BT20, 120 hours): 96%
- EC50 ([7]; BT-20, 120 h): 0.91 nM
- EC50 ([8]; NCI-H2110, 120 h): 0.61 nM
- Span (%) ([8]; NCI-H2110, 120 hours): 91%
- EC50 ([9]; NCI-H1975, 120 h): 0.87 nM
- Span (%) ([9]; NCI-H1975, 120 hours): 90%
- EC50 ([10]; MCF7, 120 h): 1.2 nM
- Span (%) ([10]; MCF-7, 120 hours): 83%
- EC50 ([11]; NCI-H292, 120 h): 0.36 nM
- Span (%) ([11]; NCI-H292, 120 hours): 98%
- Span (%) ([12]; HCC1937, 120 hours): 94%
- EC50 ([12]; HCC1937, 120 h): 3.5 nM
- EC50 ([13]; SK-BR-3, 120 h): 0.39 nM
- Span (%) ([13]; SKBR3, 120 hours): 96%
- EC50 ([14]; NCI-H358, 120 h): 0.53 nM
- Span (%) ([14]; NCI-H358, 120 hours): 96%
- EC50 ([15]; NCI-H441, 120 h): 0.32 nM
- Span (%) ([15]; NCI-H441, 120 hours): 93%
- EC50 ([16]; NCI-H1703, 120 h): 1.1 nM
- Span (%) ([16]; NCI-H1703, 120 hours): 93%
- Span (%) ([17]; HCC1143, 120 hours): 76%
- EC50 ([17]; HCC1143, 120 h): 0.85 nM
- EC50 ([18]; MDA-MB-231, 120 h): 0.84 nM
- Span (%) ([18]; MDA-MB-231, 120 hours): 64%
- EC50 [19]: 0.32 to 4.2 nM
- EC50 ([20]; MDA-MB-468, 120 h): 0.59 nM
- Span (%) ([20]; MDA-MB-468, 120 hours): 97%
- EC50 ([21]; 120 h): 12 nM
- Span (%) ([21]; NCI-H2343, 120 hours): 70%

SMILES: CC[C@@]1(O)C(=O)OCc2c1cc1n(c2=O)Cc2c-1nc1cc(F)c(C)c3c1c2[C@@H](NC(=O)CN)CC3 [Gly-exatecan, gly-exatecan]
- EC50 ([1]; MDA-MB-361, 120 hours, read-out: EC50): 4.5 nM
- Span (%) ([1]; MDA-MB-361, 120 hours): 98%
- EC50 ([2]; JIMT-1, JIMT1, 120 hours, read-out: EC50): 15 nM
- Span (%) ([2]; JIMT1, 120 hours): 70%
- Span (%) ([3]; A549, 120 hours): 90%
- EC50 ([3]; A549, 120 hours, read-out: EC50): 44 nM
- EC50 ([4]; NCI-H226, 120 hours, read-out: EC50): 23 nM
- Span (%) ([4]; NCI-H226, 120 hours): 99%
- EC50 [5]: 11 nM
- Span (%) [5]: 80%
- Span (%) ([6]; HCC38, 120 hours): 93%
- EC50 ([6]; HCC38, 120 hours, read-out: EC50): 6.1 nM
- Span (%) ([7]; BT20, 120 hours): 92%
- EC50 ([7]; BT-20, BT20, 120 hours, read-out: EC50): 21 nM
- Span (%) ([8]; NCI-H2110, 120 hours): 89%
- EC50 ([8]; NCI-H2110, 120 hours, read-out: EC50): 9.2 nM
- EC50 ([9]; NCI-H1975, 120 hours, read-out: EC50): 43 nM
- Span (%) ([9]; NCI-H1975, 120 hours): 84%
- EC50 ([10]; MCF7, MCF-7, 120 hours, read-out: EC50): 8.8 nM
- Span (%) ([10]; MCF-7, 120 hours): 75%
- EC50 ([11]; NCI-H292, 120 hours, read-out: EC50): 4 nM
- Span (%) ([11]; NCI-H292, 120 hours): 94%
- Span (%) ([12]; HCC1937, 120 hours): 87%
- EC50 ([12]; HCC1937, 120 hours, read-out: EC50): 35 nM
- EC50 ([13]; SK-BR-3, SKBR3, 120 hours, read-out: EC50): 4.2 nM
- Span (%) ([13]; SKBR3, 120 hours): 95%
- EC50 ([14]; NCI-H358, 120 hours, read-out: EC50): 7.5 nM
- Span (%) ([14]; NCI-H358, 120 hours): 95%
- EC50 ([15]; NCI-H441, 120 hours, read-out: EC50): 5.1 nM
- Span (%) ([15]; NCI-H441, 120 hours): 90%
- EC50 ([16]; NCI-H1703, 120 hours, read-out: EC50): 25 nM
- Span (%) ([16]; NCI-H1703, 120 hours): 91%
- Span (%) ([17]; HCC1143, 120 hours): 76%
- EC50 ([17]; HCC1143, 120 hours, read-out: EC50): 14 nM
- EC50 ([18]; MDA-MB-231, 120 hours, read-out: EC50): 3.8 nM
- Span (%) ([18]; MDA-MB-231, 120 hours): 60%
- EC50 [19]: 3.8 to 44 nM
- EC50 ([20]; MDA-MB-468, 120 hours, read-out: EC50): 5.3 nM
- Span (%) ([20]; MDA-MB-468, 120 hours): 91%
- Span (%) ([21]; NCI-H2343, 120 hours): 55%
- EC50 ([21]; NCI-H2343, 120 hours, read-out: EC50): 30 nM
